Results published in paper PMC7605558 (bioRxiv, 2020).
Read-outs that look alike come from different tables or passages of the source.

Columns and labels:
SARS-CoV-2 M^pro = settings: cited from earlier work
HCoV-229E [1] = settings: read-out: EC50 against HCoV-229E; cited from earlier work
SARS-CoV M^pro [2] = target: T1, SARS-CoV M^pro (Severe acute respiratory syndrome coronavirus, UniProt P0C6X7); settings: cited from earlier work
SARS-CoV-2 pseudovirus = type: cell-based
SARS-CoV M^pro [3] = target: T1, SARS-CoV M^pro; assay: biochemical
MERS-CoV M^pro [4] = target: T2, MERS-CoV M^pro (Middle East respiratory syndrome-related coronavirus, UniProt K9N7C7); assay: biochemical
HCoV-OC43 M^pro [5] = target: T3, HCoV-OC43 M^pro (Human coronavirus OC43, UniProt P0C6X6); assay: biochemical
MERS-CoV M^pro [6] = target: T2, MERS-CoV M^pro; type: binding
SARS-CoV M^pro [7] = target: T1, SARS-CoV M^pro; type: binding
HCoV-OC43 M^pro [8] = target: T3, HCoV-OC43 M^pro; type: binding
HCoV-229E [9] = assay: microbe, parasite or virus in culture; type: cell-based; settings: Human coronavirus 229E, read-out: HCoV-229E (EC50, μM)
HCoV-NL63 = assay: microbe, parasite or virus in culture; type: cell-based; settings: Human coronavirus NL63, read-out: HCoV-NL63 (EC50, μM)
SARS-CoV = assay: microbe, parasite or virus in culture; type: cell-based; settings: Severe acute respiratory syndrome coronavirus, Vero 76, 96 h, read-out: SARS-CoV (EC50, μM)
HCoV-OC43 = assay: Combination therapy with remdesivir in HCoV-OC43 CPE assay; type: cell-based; settings: combination ratios 8:1 to 1:8
SARS-CoV-2 = settings: read-out: SARS-CoV-2 (EC50, μM), cellular antiviral activity; CPE assay; cited from earlier work

T3 sequence (P0C6X6 3247-3549 limits assumed): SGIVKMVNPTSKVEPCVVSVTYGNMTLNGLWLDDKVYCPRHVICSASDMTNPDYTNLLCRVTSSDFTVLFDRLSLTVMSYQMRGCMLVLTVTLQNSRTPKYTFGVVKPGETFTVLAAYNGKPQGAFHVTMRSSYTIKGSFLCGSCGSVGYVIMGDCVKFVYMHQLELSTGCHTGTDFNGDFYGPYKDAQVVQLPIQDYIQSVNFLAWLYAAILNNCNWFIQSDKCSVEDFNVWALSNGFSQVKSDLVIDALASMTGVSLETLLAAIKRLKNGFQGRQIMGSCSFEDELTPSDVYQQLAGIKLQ
T2 sequence (K9N7C7 3248-3553 limits assumed): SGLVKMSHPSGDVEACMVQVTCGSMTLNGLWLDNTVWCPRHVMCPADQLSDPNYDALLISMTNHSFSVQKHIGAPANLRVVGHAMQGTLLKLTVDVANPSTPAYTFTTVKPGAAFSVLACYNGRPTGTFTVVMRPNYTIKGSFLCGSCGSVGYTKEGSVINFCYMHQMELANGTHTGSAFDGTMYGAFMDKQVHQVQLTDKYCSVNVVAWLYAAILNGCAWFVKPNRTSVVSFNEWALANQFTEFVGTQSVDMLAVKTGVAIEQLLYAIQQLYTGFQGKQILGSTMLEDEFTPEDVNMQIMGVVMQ

Compound: CCOC(=O)/C=C/[C@H](C[C@@H]1CCNC1=O)NC(=O)[C@@H](CC(=O)[C@@H](NC(=O)c1cc(C)on1)C(C)C)Cc1ccc(F)cc1 [rupintrivir]
- inhibition of SARS-CoV-2 M^pro (SARS-CoV-2 M^pro): failed to inhibit
- EC50 (HCoV-229E [1]): 300 nM
- inhibition of SARS-CoV M^pro (SARS-CoV M^pro [2]): failed to inhibit

Compound: CCOC(=O)[C@H]1O[C@@H]1C(=O)N[C@@H](CC(C)C)C(=O)NCCC(C)C [E-64d]
- IC50 (SARS-CoV-2 pseudovirus; read-out: IC50 of SARS-CoV-2 pseudovirus entry): 910 ± 100 nM

Compound: CC(C)(C)NC(=O)N[C@H](C(=O)N1C[C@H]2[C@@H]([C@H]1C(=O)NC(CC1CCC1)C(=O)C(N)=O)C2(C)C)C(C)(C)C (stereo partly drawn) [boceprevir]
- IC50 (SARS-CoV M^pro [3]): 6630 nM
- Ki (SARS-CoV M^pro [3]; KI against SARS-CoV M^pro): 1430 nM
- IC50 (MERS-CoV M^pro [4]): 10400 nM
- Ki (MERS-CoV M^pro [4]): 1650 ± 120 nM
- IC50 (HCoV-OC43 M^pro [5]): 9000 nM
- Ki (HCoV-OC43 M^pro [5]): 2290 nM
- effect on cathepsin L-mediated SARS-CoV-2 pseudovirus entry (SARS-CoV-2 pseudovirus): no effect
- MERS-CoV M^pro (ΔTm, °C) (MERS-CoV M^pro [6]): 2.46 ± 0.07 °C
- SARS-CoV M^pro (ΔTm, °C) (SARS-CoV M^pro [7]): 3.94 ± 0.13 °C
- HCoV-OC43 M^pro (ΔTm, °C) (HCoV-OC43 M^pro [8]): 1.02 ± 0.05 °C
- EC50 (HCoV-229E [9]): 14.1 ± 1.5 µM
- EC50 (HCoV-NL63): 16.9 ± 5.87 µM
- EC50 (SARS-CoV): 54.2 ± 7.76 µM
- antiviral effect in combination with remdesivir (combination indices) (HCoV-OC43): additive antiviral effect
- EC50 (SARS-CoV-2): 1.31 ± 0.58 µM

Compound: CCC(CC)COC(=O)[C@H](C)N[P@](=O)(OC[C@H]1O[C@@](C#N)(c2ccc3c(N)ncnn23)[C@H](O)[C@@H]1O)Oc1ccccc1 [remdesivir]
- HCoV-OC43 M^pro (ΔTm, °C) (HCoV-OC43 M^pro [8]): 0.00 ± 0.02 °C
- effect on HCoV-OC43 M^pro stability (Tm) (HCoV-OC43 M^pro [8]): no effect
- EC50 (HCoV-229E [9]): 0.03 µM
- EC50 (HCoV-NL63): 0.63 ± 0.041 µM
